Results reported in the NIST ThermoML archive (doi:10.1021/je500320c).
Numbers after ± are expanded uncertainties.

Assay: an = ratio of the nth substance listed
Conditions: 101 kPa, Liquid, a1 = 2

`NC(N)=O` [urea] + C[N+](C)(C)CCO.[Cl-] showed a mass density (298.15 K) of 1197.9 ± 0.9 kg/m3, a viscosity (298.15 K) of 1571 ± 260 mPa·s and a mass density (303.15 K) of 1195.2 ± 0.9 kg/m3. It also gave a viscosity (303.15 K) of 953.7 ± 100 mPa·s, a mass density (308.15 K) of 1192.7 ± 0.8 kg/m3 and a viscosity (308.15 K) of 608.4 ± 54 mPa·s. It also gave a mass density (313.15 K) of 1190.1 ± 0.8 kg/m3, a viscosity (313.15 K) of 403.2 ± 30 mPa·s and a mass density (318.15 K) of 1187.5 ± 0.8 kg/m3. It also gave a viscosity (318.15 K) of 277.2 ± 17 mPa·s, a mass density (323.15 K) of 1184.9 ± 0.8 kg/m3 and a viscosity (323.15 K) of 195.9 ± 9.8 mPa·s. For the same compound, the mass density (328.15 K) was 1182.3 ± 0.8 kg/m3, the viscosity (328.15 K) was 143.6 ± 5.6 mPa·s and the mass density (333.15 K) was 1179.7 ± 0.8 kg/m3. The viscosity (333.15 K) was 107.7 ± 3.9 mPa·s.
